Data as given in PubChem BioAssay AID2060512 (Molecular Pharmacology Branch, DTP, NCI, 2025).

System: 186277-243-T-J2-PDC complex spheroid viability
Assay: Anticancer human tumor 186277-243-T-J2-PDC patient-derived colon adenocarcinoma cell line growth inhibition [GQUAD]
Details: for IC50: curve of first compound; for viability, T/C: stronger effect = lower value
Description: DNA G-quadruplex Stabilizer Agents in Combinations in Complex Spheroids
A high-throughput screen of multi-cell type tumor spheroids was designed to identify active combinations of DNA G-quadruplex stabilizer agents and targeted small molecules. Complex spheroids include a stromal component modeled by human endothelial cells (HUVEC) and fibroblasts modeled by human mesenchymal stem cells (MSCs). The concentration ranges selected for each drug and investigational agent were based upon clinically achievable concentrations if the clinical Cmax of the agent was known.
Compounds. The drugs and investigational agents: pidnarulex (CX-5461; NSC782164), APTO-253 (NSC789042), BRACO-19 (NSC847499), peposertib (NSC802822), ceralasertib (NSC780249), elimusertib (NSC800525), camonsertib (NSC841442), AZD-1390 (NSC803789), olaparib (NSC753686), talazoparib (NSC767125), ART-558 (NSC835418), sotorasib (NSC818433), MRTX-1133 (NSC836407), SN-38 (NSC673596), topotecan (NSC609699), etoposide (NSC141540), doxorubicin (NSC123127), gemcitabine (NSC613327), 5-fluorouracil (NSC19893), paclitaxel (NSC125973), vemurafenib (NSC761431), panobinostat (NSC761190), R-306465 (JNJ-16241199; NSC773264), adavosertib (NSC754352), TP-3654 (NSC805149), carboplatin (NSC241240), KSQ-4279 (NSC840948), and staurosporine (NSC755774) were obtained from the National Cancer Institute (NCI) Developmental Therapeutics Program Chemical Repository (34). The FDA-approved anticancer drug set is available from the NCI Developmental Therapeutics Program. […] The stock solutions were prepared in dimethyl sulfoxide (DMSO, Sigma-Aldrich, St. Louis, MO, cat. D2650) at 800-fold the tested concentration and stored at -70 degrees C prior to their use. All drugs and investigational agents were tested over a range starting from a high concentration at or near the clinical Cmax and decreasing in half-log increments. If the clinical Cmax for an agent had not been determined, the highest concentration tested was 10 microM.
2.3 Cell Culture. All cells were maintained in an incubator at 37 degrees C and 5% CO2 with 95% humidity. The PDC lines were cultured according to standard operating procedures established by the NCI PDMR. All PDCs were thawed and cultured in Matrigel-coated flasks prepared with a working solution of 1X Ham's F-12 nutrient mix, without supplementation (Invitrogen, cat. 11765054), 100 U/mL penicillin-streptomycin (Invitrogen, cat. 15140122), and 2.5% Matrigel (Corning Inc., cat. 354248) for the first three passages. The 857933-349-R-J2-PDC line was cultured in 6C/Colon 1B media, which includes advanced DMEM/F-12 (Thermo Fisher Scientific, cat. 12634028), 10 mM HEPES (Thermo Fisher Scientific, cat. 15630080), 1X GlutaMAX supplement (Thermo Fisher Scientific, cat. 35050061), 0.1 mg/mL primocin (InvivoGen, cat. ant-pm-2), 10% defined fetal bovine serum, heat inactivated (HyClone Laboratories Inc., cat. SH30070.03HI), 50% L-WRN conditioned media (ATCC, cat. CRL-3276), 1.25 mM N-Acetyl-L-cysteine (Sigma-Aldrich, cat. A9165), 10 mM nicotinamide (Sigma-Aldrich, cat. N0636), 1X B-27 supplement (Thermo Fisher Scientific, cat. 17504044), 1X N-2 supplement (Thermo Fisher Scientific, cat. 17502048), 10 microM Y-27632 dihydrochloride (Tocris Bioscience, cat. 1254), and 50 ng/mL human EGF recombinant protein (Thermo Fisher Scientific, cat. PHG0311). The 485176-168-R4-J1-PDC line was cultured in Panc media, which includes all 6C/Colon 1B media components plus 100 ng/mL human FGF-10 (Thermo Fisher Scientific, cat. 100-26), 500 nM SB-431542 (Selleckchem, cat. S1067), and gastrin (Tocris, cat. 3006).
[…]

[1] = second compound 0.0316 µM, first compound 0.0316 µM
[2] = second compound 0.0316 µM, first compound 0.1 µM
[3] = second compound 0.0316 µM, first compound 0.316 µM
[4] = second compound 0.0316 µM, first compound 1 µM
[5] = second compound 0.0316 µM, first compound 3.16 µM
[6] = second compound 0.0316 µM, first compound 10 µM
[7] = second compound 0.1 µM, first compound 0.0316 µM
[8] = second compound 0.1 µM, first compound 0.1 µM
[9] = second compound 0.1 µM, first compound 0.316 µM
[10] = second compound 0.1 µM, first compound 1 µM
[11] = second compound 0.1 µM, first compound 3.16 µM
[12] = second compound 0.1 µM, first compound 10 µM
[13] = second compound 0.316 µM, first compound 0.0316 µM
[14] = second compound 0.316 µM, first compound 0.1 µM
[15] = second compound 0.316 µM, first compound 0.316 µM
[16] = second compound 0.316 µM, first compound 1 µM
[17] = second compound 0.316 µM, first compound 3.16 µM
[18] = second compound 0.316 µM, first compound 10 µM
[19] = second compound 1 µM, first compound 0.0316 µM
[20] = second compound 1 µM, first compound 0.1 µM
[21] = second compound 1 µM, first compound 0.316 µM
[22] = second compound 1 µM, first compound 1 µM
[23] = second compound 1 µM, first compound 3.16 µM
[24] = second compound 1 µM, first compound 10 µM
[25] = second compound 3.16 µM, first compound 0.0316 µM
[26] = second compound 3.16 µM, first compound 0.1 µM
[27] = second compound 3.16 µM, first compound 0.316 µM
[28] = second compound 3.16 µM, first compound 1 µM
[29] = second compound 3.16 µM, first compound 3.16 µM
[30] = second compound 3.16 µM, first compound 10 µM
[31] = second compound 10 µM, first compound 0.0316 µM
[32] = second compound 10 µM, first compound 0.1 µM
[33] = second compound 10 µM, first compound 0.316 µM
[34] = second compound 10 µM, first compound 1 µM
[35] = second compound 10 µM, first compound 3.16 µM
[36] = second compound 10 µM, first compound 10 µM
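Also: spheroids exposed to drugs for 7 days.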
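For viability, T/C in this document: 100% = DMSO vehicle control viability.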

SMILES: Cc1cccc(N(C)C(=O)C2C(O)CCN2c2nc(C)cc(C(F)(F)F)c2C#N)c1 (centres undefined) + Cc1[nH]c2ccc(F)cc2c1-c1nc2c3cccnc3c3ncccc3c2[nH]1
- IC50 (second compound 0.0316 µM): > 10 µM
- IC50 (second compound 0.1 µM): > 10 µM
- IC50 (second compound 0.316 µM): > 10 µM
- IC50 (second compound 1 µM): > 10 µM
- IC50 (second compound 3.16 µM): > 10 µM
- IC50 (second compound 10 µM): > 10 µM
- viability, T/C [1]: 104%
- viability, T/C [2]: 104%
- viability, T/C [3]: 98.2%
- viability, T/C [4]: 95.8%
- viability, T/C [5]: 88.7%
- viability, T/C [6]: 106%
- viability, T/C [7]: 104%
- viability, T/C [8]: 97.1%
- viability, T/C [9]: 100%
- viability, T/C [10]: 92.6%
- viability, T/C [11]: 95.5%
- viability, T/C [12]: 96.3%
- viability, T/C [13]: 92.6%
- viability, T/C [14]: 105%
- viability, T/C [15]: 99.8%
- viability, T/C [16]: 98%
- viability, T/C [17]: 105%
- viability, T/C [18]: 104%
- viability, T/C [19]: 128%
- viability, T/C [20]: 85.8%
- viability, T/C [21]: 98.2%
- viability, T/C [22]: 98.3%
- viability, T/C [23]: 97%
- viability, T/C [24]: 108%
- viability, T/C [25]: 127%
- viability, T/C [26]: 89.3%
- viability, T/C [27]: 98.2%
- viability, T/C [28]: 105%
- viability, T/C [29]: 99.9%
- viability, T/C [30]: 113%
- viability, T/C [31]: 90.9%
- viability, T/C [32]: 101%
- viability, T/C [33]: 109%
- viability, T/C [34]: 92.2%
- viability, T/C [35]: 98.8%
- viability, T/C [36]: 99.9%

SMILES: Nc1ccn(C2OC(CO)C(O)C2(F)F)c(=O)n1 (centres undefined) + Cc1[nH]c2ccc(F)cc2c1-c1nc2c3cccnc3c3ncccc3c2[nH]1
- IC50 (second compound 0.0316 µM): < 0.0316 µM
- IC50 (second compound 0.1 µM): < 0.0316 µM
- IC50 (second compound 0.316 µM): < 0.0316 µM
- IC50 (second compound 1 µM): < 0.0316 µM
- IC50 (second compound 3.16 µM): < 0.0316 µM
- IC50 (second compound 10 µM): < 0.0316 µM
- viability, T/C [1]: 21.6%
- viability, T/C [2]: 11.7%
- viability, T/C [3]: 11.9%
- viability, T/C [4]: 10.3%
- viability, T/C [5]: 11.4%
- viability, T/C [6]: 11.4%
- viability, T/C [7]: 22.8%
- viability, T/C [8]: 11.5%
- viability, T/C [9]: 11.6%
- viability, T/C [10]: 9.19%
- viability, T/C [11]: 12.4%
- viability, T/C [12]: 11.5%
- viability, T/C [13]: 23.7%
- viability, T/C [14]: 10.1%
- viability, T/C [15]: 11.9%
- viability, T/C [16]: 10.4%
- viability, T/C [17]: 12.4%
- viability, T/C [18]: 11.6%
- viability, T/C [19]: 18.9%
- viability, T/C [20]: 10.6%
- viability, T/C [21]: 11.8%
- viability, T/C [22]: 10.4%
- viability, T/C [23]: 11.7%
- viability, T/C [24]: 12.1%
- viability, T/C [25]: 23.4%
- viability, T/C [26]: 15.5%
- viability, T/C [27]: 11.9%
- viability, T/C [28]: 11.3%
- viability, T/C [29]: 9.87%
- viability, T/C [30]: 12.2%
- viability, T/C [31]: 20.2%
- viability, T/C [32]: 8.63%
- viability, T/C [33]: 9.73%
- viability, T/C [34]: 9.38%
- viability, T/C [35]: 11.6%
- viability, T/C [36]: 12.2%
